Values after ≈ are worked out from the molar mass of the structure shown. Values joined by “and” are separate entries in the source; they are usually repeats but may differ in a detail not shown here. Equal values may be shown once. Read-outs that look alike come from different tables or passages of the source.
Experiments:
C. elegans = assay: Toxic effects on E. coli (OP50)-fed C. elegans; assay type: in vivo, Caenorhabditis elegans; conditions: escalating doses in S-medium
Description: FIG. 2. SC5005 protects C. elegans from S. aureus infection. Effect of SC78 and SC5005 on the survival of MSSA- or MRSA-infected C. elegans was assessed. The glp-4(bn2) C. elegans were fed on E. coli (OP50), MSSA (ATCC 29213) or MRSA (ATCC 33592) followed by exposing to SC78 or SC5005 at concentrations of 2-, 4-, 8-folds of respective MIC in S-medium. The survival of worms was monitored daily till the end of the study. The survival of animals fed with E. coli (OP50) and receiving DMSO only was served as a control to show the normal life-span of C. elegans.
Meanwhile, the toxic effects of these agents on C. elegans were also assessed. E. coli (OP50)-fed worms were exposed to escalating doses of SC78 and SC5005 in S-medium followed by monitoring of their survival daily.

[1] = system: S. intermedius (ATCC 29663); assay: MIC, S. intermedius; assay type: cell-based
[2] = system: Bacillus cereus ATCC 11778; assay: MIC, Bacillus cereus; assay type: cell-based
VR-E. faecium = assay: MIC, VR-E. faecium; assay type: cell-based, vancomycin resistant Enterococcus faecium
[3] = system: Streptococcus pyogenes ATCC 19615; assay: MIC, Streptococcus pyogenes; assay type: cell-based
[4] = system: Mycobacterium tuberculosis H37Ra; assay: MIC, Mycobacterium tuberculosis; assay type: cell-based
[5] = system: Enterococcus faecium ATCC 19434; assay: MIC, Enterococcus faecium ATCC 19434; assay type: cell-based
Clinical isolated MRSAs = assay: MIC90, one hundred clinical isolated MRSA strains; assay type: cell-based, methicillin-resistant Staphylococcus aureus; conditions: one hundred clinical isolated MRSA from NTUH, concentration that inhibits 90% of strains tested
[6] = system: clinical isolated VISA strain; assay: MIC, VISA; assay type: cell-based, vancomycin-intermediate Staphylococcus aureus; conditions: VISA, clinical isolate
[7] = system: Clostridium difficile 630; assay: MIC, Clostridium difficile 630; assay type: cell-based
S. aureus NCTC 8325 [8] = assay: MIC, S. aureus NCTC 8325 (CLSI broth microdilution / agar dilution); assay type: cell-based, Staphylococcus aureus
[9] = system: Corynebacterium diphtheriae ATCC 11913; assay: MIC, Corynebacterium diphtheriae; assay type: cell-based
S. aureus NCTC 8325 [10] = assay type: cell-based, Staphylococcus aureus; conditions: 200-day exposure to sub-lethal concentrations
S. aureus NCTC 8325 [11] = assay: Time-kill kinetics; assay type: cell-based, Staphylococcus aureus; conditions: for reduction in CFU: 24-h treatment period; for bactericidal / bacteriostatic classification: killing over 99.9% of inoculum within 24 hours
[12] = system: Clostridium difficile R20291; assay: MIC, Clostridium difficile R20291; assay type: cell-based
HT-29 = assay: Antiproliferative activity, HT-29; assay type: cell-based, human; conditions: for IC50: HT-29, antiproliferative
Description: (§1) In addition to the antibacterial activities, the cytotoxic effects of these malonate derivatives on human cancer cell lines were also assessed.

[13] = system: Listeria monocytogenes ATCC 19113; assay: MIC, Listeria monocytogenes; assay type: cell-based
S. aureus ATCC 12598 = assay: MIC, S. aureus ATCC 12598; assay type: cell-based, Staphylococcus aureus
[14] = system: Bacillus subtilis BCRC 10255; assay: MIC, Bacillus subtilis; assay type: cell-based
S. hominis (ATCC 27844) = assay: MIC, S. hominis; assay type: cell-based
VRSA (SJC1200) = assay: MIC, VRSA; assay type: cell-based, vancomycin-resistant Staphylococcus aureus; conditions: VRSA (SJC1200)
[15] = system: Enterococcus faecalis ATCC 19433; assay: MIC, Enterococcus faecalis; assay type: cell-based
K-562 = assay: Antiproliferative activity, K-562; assay type: cell-based, human; conditions: for IC50: K-562, antiproliferative
Description: as §1

[16] = system: S. haemolyticus (ATCC 29970); assay: MIC, S. haemolyticus; assay type: cell-based
HEK-293 = assay: Antiproliferative activity, HEK-293; assay type: cell-based, human; conditions: for IC50: HEK-293, antiproliferative
Description: as §1

[17] = system: S. epidermidis ATCC 35984; assay: MIC, S. epidermidis ATCC 35984; assay type: cell-based
[18] = system: S. saprophyticus (ATCC 15305); assay: MIC, S. saprophyticus; assay type: cell-based
MRSA ATCC 33592 = assay: MIC, MRSA ATCC 33592; assay type: cell-based, methicillin-resistant Staphylococcus aureus; conditions: MRSA ATCC 33592
[19] = system: S. lugdunesis (NTUH isolate); assay: MIC, S. lugdunesis; assay type: cell-based
MRSA SCCmec VT = assay: MIC, MRSA SCCmec VT; assay type: cell-based, methicillin-resistant Staphylococcus aureus
MRSA ATCC 49476 = assay: MIC, MRSA ATCC 49476; assay type: cell-based, methicillin-resistant Staphylococcus aureus; conditions: MRSA ATCC 49476
[20] = system: S. epidermidis ATCC 12228; assay: MIC, S. epidermidis ATCC 12228; assay type: cell-based; conditions: S. epidermidis ATCC 12228
[21] = system: Enterococcus faecium ATCC 35667; assay: MIC, Enterococcus faecium ATCC 35667; assay type: cell-based
[22] = Staphylococcus aureus, read-out: MIC
[23] = Clostridioides difficile, read-out: MIC
[24] = S. epidermidis (ATCC 35984), Table 3

With `O=C(Nc1ccc(Cl)c(C(F)(F)F)c1)Nc1ccc(Cl)c(C(F)(F)F)c1` [SC78] the “survival of worms fed with OP50 (toxicity)” value (C. elegans) was “significantly decreased”, the MIC ([1]; read-out: MIC) was 1 mg/L (≈ 2.4 µM) and the MIC ([2]; ATCC11778, read-out: MIC) was 0.25 mg/L (≈ 0.599 µM). For the same molecule, the MIC (VR-E. faecium; Enterococcus faecium, read-out: MIC) was 0.25 mg/L (≈ 0.599 µM), the MIC ([3]; ATCC19615, read-out: MIC) was 0.25 mg/L (≈ 0.599 µM) and the MIC ([4]; read-out: MIC) was 1 mg/L (≈ 2.4 µM). For the same molecule, the MIC ([5]; ATCC19434, read-out: MIC) was 0.5 mg/L (≈ 1.2 µM), the MIC90 (Clinical isolated MRSAs; Staphylococcus aureus, read-out: MIC90) was 0.25 mg/L (≈ 0.599 µM) and the MIC [6, 22] was 0.25 mg/L (≈ 0.599 µM). For the same molecule, the MIC [7, 23] was 0.5 mg/L (≈ 1.2 µM), the MIC (S. aureus NCTC 8325 [8]; S. aureus (NCTC 8325), Table 3) was 0.25 mg/L (≈ 0.599 µM) and the MIC (S. aureus NCTC 8325 [8]; S. aureus NCTC 8325, Table 2) was 0.25 mg/L (≈ 0.599 µM). For the same molecule, the MIC (S. aureus NCTC 8325 [8]; Staphylococcus aureus, NCTC8325, S. aureus NCTC 8325, read-out: MIC) was 0.25 mg/L (≈ 0.599 µM), the MIC ([9]; ATCC11913, read-out: MIC) was 0.25 mg/L (≈ 0.599 µM) and the “resistance after consecutive exposure” value (S. aureus NCTC 8325 [10]) was “no resistance was observed”. For the same molecule, the “reduction in CFU” value (S. aureus NCTC 8325 [11]; 8-folds of MIC) was “over 99.9%”, the “bactericidal / bacteriostatic classification” value (S. aureus NCTC 8325 [11]) was “bactericidal” and the MIC [12, 23] was 0.25 mg/L (≈ 0.599 µM). For the same molecule, the IC50 (HT-29; Homo sapiens, read-out: IC50) was 4.51 mg/L (≈ 10.8 µM), the Selectivity ratio (HT-29; IC50 (HT-29)/MIC against S. aureus) was 18.04 and the MIC ([13]; ATCC19113, read-out: MIC) was 0.0625 mg/L (≈ 0.15 µM). For the same molecule, the MIC (S. aureus ATCC 12598; Staphylococcus aureus, ATCC12598, read-out: MIC) was 0.25 mg/L (≈ 0.599 µM), the MIC ([14]; BCRC10255, read-out: MIC) was 0.25 mg/L (≈ 0.599 µM) and the MIC (S. hominis (ATCC 27844); Staphylococcus hominis, ATCC27844, read-out: MIC) was 0.25 mg/L (≈ 0.599 µM). The MIC (VRSA (SJC1200); [22]) was 0.25 mg/L (≈ 0.599 µM), the MIC ([15]; ATCC19433, read-out: MIC) was 0.25 mg/L (≈ 0.599 µM) and the IC50 (K-562; Homo sapiens, K562, read-out: IC50) was 4.73 mg/L (≈ 11.3 µM). The Selectivity ratio (K-562; IC50 (K-562)/MIC against S. aureus) was 18.92, the MIC ([16]; Staphylococcus haemolyticus, ATCC29970, read-out: MIC) was 0.5 mg/L (≈ 1.2 µM) and the IC50 (HEK-293; Homo sapiens, HEK293, read-out: IC50) was 1.13 mg/L (≈ 2.71 µM). For the same molecule, the Selectivity ratio (HEK-293; IC50 (HEK-293)/MIC against S. aureus) was 4.52, the MIC [17, 24] was 0.25 mg/L (≈ 0.599 µM) and the MIC ([17]; Staphylococcus epidermidis, ATCC35984, S. epidermidis ATCC 35984, read-out: MIC) was 0.25 mg/L (≈ 0.599 µM). For the same molecule, the MIC ([18]; Staphylococcus saprophyticus, ATCC15305, read-out: MIC) was 0.25 mg/L (≈ 0.599 µM), the MIC (MRSA ATCC 33592; [22]) was 0.25 mg/L (≈ 0.599 µM) and the MIC ([19]; read-out: MIC) was 0.25 mg/L (≈ 0.599 µM). It also gave an MIC (MRSA SCCmec VT; Staphylococcus aureus, MRSA SCCmec VT, read-out: MIC) of 0.25 mg/L (≈ 0.599 µM), an MIC (MRSA ATCC 49476; [22]) of 25 mg/L (≈ 59.9 µM) and an MIC ([20]; Staphylococcus epidermidis, ATCC12228, read-out: MIC) of 0.25 mg/L (≈ 0.599 µM). The MIC ([21]; ATCC35667, read-out: MIC) was 0.25 mg/L (≈ 0.599 µM).

With `O=C(Nc1ccc(Cl)c(C(F)(F)F)c1)C(CCCl)C(=O)Nc1ccc(Cl)c(C(F)(F)F)c1` [SC5005] the “survival of worms fed with OP50 (toxicity)” value (C. elegans) was “didn't affect the survival”, the MIC [1] was 1 mg/L (≈ 1.92 µM) and the MIC [2] was 0.5 mg/L (≈ 0.958 µM). For the same molecule, the MIC (VR-E. faecium) was 0.5 mg/L (≈ 0.958 µM), the MIC [3] was 0.5 mg/L (≈ 0.958 µM) and the MIC [4] was 16 mg/L (≈ 30.7 µM). The MIC [5] was 1 mg/L (≈ 1.92 µM), the MIC90 (Clinical isolated MRSAs) was 0.5 mg/L and 0.5^b mg/L and the MIC [6] was 0.5 mg/L (≈ 0.958 µM). For the same molecule, the MIC [7] was 0.5 mg/L (≈ 0.958 µM), the MIC (S. aureus NCTC 8325 [8]; MSSA NCTC 8325, Table 6) was 0.5 mg/L (≈ 0.958 µM) and the MIC (S. aureus NCTC 8325 [8]; S. aureus (NCTC 8325), Table 3) was 0.5 mg/L (≈ 0.958 µM). It also gave an MIC (S. aureus NCTC 8325 [8]; S. aureus NCTC 8325) of 0.5 mg/L (≈ 0.958 µM), an MIC (S. aureus NCTC 8325 [8]; S. aureus NCTC 8325, Table 2) of 0.5 mg/L (≈ 0.958 µM) and an MIC [9] of 0.5 mg/L (≈ 0.958 µM). The “resistance after consecutive exposure” value (S. aureus NCTC 8325 [10]) was “no resistance was observed”, the “reduction in CFU” value (S. aureus NCTC 8325 [11]; 4-folds of MIC) was 99.91% and the “reduction in CFU” value (S. aureus NCTC 8325 [11]; 8-folds of MIC) was 99.95%. The “bactericidal / bacteriostatic classification” value (S. aureus NCTC 8325 [11]) was “bactericidal”, the MIC [12] was 0.5 mg/L (≈ 0.958 µM) and the IC50 (HT-29) was 14.56 mg/L (≈ 27.9 µM). For the same molecule, the MIC [13] was 0.125 mg/L (≈ 0.24 µM), the MIC (S. aureus ATCC 12598) was 0.5 mg/L (≈ 0.958 µM) and the MIC [14] was 0.5 mg/L (≈ 0.958 µM). The MIC (S. hominis (ATCC 27844)) was 0.25 mg/L (≈ 0.479 µM), the MIC (VRSA (SJC1200)) was 0.5 mg/L (≈ 0.958 µM) and the MIC [15] was 0.5 mg/L (≈ 0.958 µM). The IC50 (K-562) was 20.23 mg/L (≈ 38.8 µM), the MIC [16] was 1 mg/L (≈ 1.92 µM) and the IC50 (HEK-293) was 16.79 mg/L (≈ 32.2 µM). The MIC [17, 24] was 0.5 mg/L (≈ 0.958 µM), the MIC ([17]; S. epidermidis ATCC 35984) was 0.5 mg/L (≈ 0.958 µM) and the MIC [18] was 0.5 mg/L (≈ 0.958 µM). For the same molecule, the MIC (MRSA ATCC 33592) was 0.5 mg/L (≈ 0.958 µM), the MIC (MRSA ATCC 33592; Table 6) was 0.5 mg/L (≈ 0.958 µM) and the MIC [19] was 0.5 mg/L (≈ 0.958 µM). The MIC (MRSA SCCmec VT; MRSA SCCmec VT) was 0.5 mg/L (≈ 0.958 µM), the MIC (MRSA SCCmec VT; SCCmec VT, Table 6) was 0.5 mg/L (≈ 0.958 µM) and the MIC (MRSA ATCC 49476) was 0.5 mg/L (≈ 0.958 µM). The MIC [20] was 0.5 mg/L (≈ 0.958 µM) and the MIC [21] was 0.5 mg/L (≈ 0.958 µM).
